Test results from ChEMBL document CHEMBL3991601, “The target landscape of clinical kinase drugs” (Science, 2017).
Activity calls are given as the source filed them. Cut-off read from the data, not from the text of the source, for most assays here: actives have a measured Kd and inactives only a lower limit.

Tests used:
[1] = target: Mitogen-activated protein kinase 3 (Homo sapiens, UniProt P27361)
[2] = target: T1, Exosome RNA helicase MTR4 (Homo sapiens, UniProt P42285)
T1 sequence (P42285 whole entry): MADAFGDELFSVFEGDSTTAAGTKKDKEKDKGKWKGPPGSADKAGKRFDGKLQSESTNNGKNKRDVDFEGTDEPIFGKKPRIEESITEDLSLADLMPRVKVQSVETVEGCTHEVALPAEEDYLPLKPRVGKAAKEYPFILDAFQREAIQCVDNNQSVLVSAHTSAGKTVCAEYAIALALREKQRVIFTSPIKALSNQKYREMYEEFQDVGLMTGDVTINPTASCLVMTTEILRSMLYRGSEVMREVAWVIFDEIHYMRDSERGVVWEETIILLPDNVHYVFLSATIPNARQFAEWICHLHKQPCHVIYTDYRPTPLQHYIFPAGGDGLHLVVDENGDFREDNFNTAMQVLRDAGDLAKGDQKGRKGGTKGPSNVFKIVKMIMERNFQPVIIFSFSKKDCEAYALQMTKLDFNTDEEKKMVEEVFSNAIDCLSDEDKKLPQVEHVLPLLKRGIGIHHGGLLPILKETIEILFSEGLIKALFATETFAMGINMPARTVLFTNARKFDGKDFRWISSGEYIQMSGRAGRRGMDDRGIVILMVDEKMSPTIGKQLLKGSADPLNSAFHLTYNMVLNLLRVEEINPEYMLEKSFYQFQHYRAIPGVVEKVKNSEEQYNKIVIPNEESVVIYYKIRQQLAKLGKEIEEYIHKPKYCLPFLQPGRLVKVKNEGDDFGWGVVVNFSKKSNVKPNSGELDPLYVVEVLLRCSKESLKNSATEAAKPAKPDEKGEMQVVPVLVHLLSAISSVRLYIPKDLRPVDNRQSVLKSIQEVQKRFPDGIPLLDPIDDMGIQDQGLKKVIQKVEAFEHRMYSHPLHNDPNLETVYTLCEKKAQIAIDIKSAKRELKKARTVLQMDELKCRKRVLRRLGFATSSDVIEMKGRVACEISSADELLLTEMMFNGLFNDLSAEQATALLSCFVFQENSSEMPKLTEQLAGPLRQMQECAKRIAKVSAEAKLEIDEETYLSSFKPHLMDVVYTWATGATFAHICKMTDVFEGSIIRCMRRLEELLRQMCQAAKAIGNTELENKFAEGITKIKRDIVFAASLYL

[3] = target: Mitogen-activated protein kinase 8 (Homo sapiens, UniProt P45983)
[4] = target: Ribosomal protein S6 kinase alpha-1 (Homo sapiens, UniProt Q15418)
[5] = target: Tyrosine-protein kinase HCK (Homo sapiens, UniProt P08631)
[6] = target: T2, Discoidin domain-containing receptor 2 (Homo sapiens, UniProt Q16832)
T2 sequence (Q16832 whole entry): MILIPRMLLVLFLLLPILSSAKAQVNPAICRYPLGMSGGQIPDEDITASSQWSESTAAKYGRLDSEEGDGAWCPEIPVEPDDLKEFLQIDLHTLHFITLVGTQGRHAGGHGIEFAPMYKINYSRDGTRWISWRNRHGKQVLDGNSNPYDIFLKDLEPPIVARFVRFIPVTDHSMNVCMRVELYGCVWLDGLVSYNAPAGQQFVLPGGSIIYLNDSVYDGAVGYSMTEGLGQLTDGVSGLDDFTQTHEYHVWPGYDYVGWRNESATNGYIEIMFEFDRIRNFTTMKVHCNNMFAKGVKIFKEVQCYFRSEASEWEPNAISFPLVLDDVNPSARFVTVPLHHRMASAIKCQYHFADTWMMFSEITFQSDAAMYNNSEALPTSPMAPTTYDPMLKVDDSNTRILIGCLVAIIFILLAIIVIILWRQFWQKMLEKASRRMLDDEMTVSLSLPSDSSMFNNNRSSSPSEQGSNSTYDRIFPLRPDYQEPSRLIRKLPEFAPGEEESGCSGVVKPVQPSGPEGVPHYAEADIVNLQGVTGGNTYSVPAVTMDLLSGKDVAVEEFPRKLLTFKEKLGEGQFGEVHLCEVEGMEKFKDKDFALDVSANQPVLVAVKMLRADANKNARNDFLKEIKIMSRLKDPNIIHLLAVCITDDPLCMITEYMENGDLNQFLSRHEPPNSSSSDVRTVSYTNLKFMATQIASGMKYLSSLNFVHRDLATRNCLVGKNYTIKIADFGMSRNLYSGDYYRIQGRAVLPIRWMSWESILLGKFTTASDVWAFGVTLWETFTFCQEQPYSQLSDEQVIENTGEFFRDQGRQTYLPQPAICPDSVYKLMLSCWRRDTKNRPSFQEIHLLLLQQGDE
Note: in the data inactive means no Kd found up to 30 µM.

Sequence of Mitogen-activated protein kinase 3 (P27361 whole entry): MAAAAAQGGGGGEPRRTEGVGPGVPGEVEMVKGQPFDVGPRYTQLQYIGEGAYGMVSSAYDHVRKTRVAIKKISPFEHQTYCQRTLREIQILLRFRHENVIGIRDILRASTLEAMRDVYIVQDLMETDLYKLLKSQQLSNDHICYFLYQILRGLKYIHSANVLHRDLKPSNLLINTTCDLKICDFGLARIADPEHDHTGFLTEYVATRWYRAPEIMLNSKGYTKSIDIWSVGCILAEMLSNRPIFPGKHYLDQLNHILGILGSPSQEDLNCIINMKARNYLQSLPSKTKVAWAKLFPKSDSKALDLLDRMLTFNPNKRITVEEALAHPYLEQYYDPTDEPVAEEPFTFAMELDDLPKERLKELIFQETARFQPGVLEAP
Sequence of Mitogen-activated protein kinase 8 (P45983 whole entry): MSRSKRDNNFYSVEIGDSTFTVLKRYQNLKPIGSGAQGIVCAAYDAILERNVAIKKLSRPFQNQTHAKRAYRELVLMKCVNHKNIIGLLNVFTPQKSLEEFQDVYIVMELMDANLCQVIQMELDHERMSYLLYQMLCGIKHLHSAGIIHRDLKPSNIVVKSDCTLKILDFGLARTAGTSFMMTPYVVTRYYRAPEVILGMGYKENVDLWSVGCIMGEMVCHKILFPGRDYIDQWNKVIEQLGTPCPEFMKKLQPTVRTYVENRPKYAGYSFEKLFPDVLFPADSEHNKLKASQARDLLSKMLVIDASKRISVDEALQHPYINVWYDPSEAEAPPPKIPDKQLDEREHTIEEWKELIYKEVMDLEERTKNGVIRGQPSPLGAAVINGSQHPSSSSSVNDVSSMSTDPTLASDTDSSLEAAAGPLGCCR
Sequence of Ribosomal protein S6 kinase alpha-1 (Q15418 whole entry): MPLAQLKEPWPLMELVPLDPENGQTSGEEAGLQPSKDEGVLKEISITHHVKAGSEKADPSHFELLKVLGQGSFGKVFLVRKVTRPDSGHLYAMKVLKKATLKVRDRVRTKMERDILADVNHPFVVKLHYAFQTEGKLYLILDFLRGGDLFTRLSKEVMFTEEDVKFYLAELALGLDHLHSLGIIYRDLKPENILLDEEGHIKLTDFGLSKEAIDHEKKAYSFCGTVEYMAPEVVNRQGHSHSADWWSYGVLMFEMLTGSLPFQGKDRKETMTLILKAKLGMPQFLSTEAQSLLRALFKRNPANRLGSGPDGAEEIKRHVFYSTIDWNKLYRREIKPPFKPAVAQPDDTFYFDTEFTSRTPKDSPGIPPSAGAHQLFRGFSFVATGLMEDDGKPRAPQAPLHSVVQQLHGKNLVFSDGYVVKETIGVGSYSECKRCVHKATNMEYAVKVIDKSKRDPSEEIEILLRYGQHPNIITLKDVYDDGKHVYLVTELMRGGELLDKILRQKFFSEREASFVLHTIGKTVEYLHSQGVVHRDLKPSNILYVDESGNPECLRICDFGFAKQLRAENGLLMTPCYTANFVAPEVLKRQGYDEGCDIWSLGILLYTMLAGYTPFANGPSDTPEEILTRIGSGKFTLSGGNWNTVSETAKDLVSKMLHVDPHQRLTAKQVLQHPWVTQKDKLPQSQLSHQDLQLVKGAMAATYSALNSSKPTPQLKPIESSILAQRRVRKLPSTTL
Sequence of Tyrosine-protein kinase HCK (P08631 whole entry, the tested form may be a part): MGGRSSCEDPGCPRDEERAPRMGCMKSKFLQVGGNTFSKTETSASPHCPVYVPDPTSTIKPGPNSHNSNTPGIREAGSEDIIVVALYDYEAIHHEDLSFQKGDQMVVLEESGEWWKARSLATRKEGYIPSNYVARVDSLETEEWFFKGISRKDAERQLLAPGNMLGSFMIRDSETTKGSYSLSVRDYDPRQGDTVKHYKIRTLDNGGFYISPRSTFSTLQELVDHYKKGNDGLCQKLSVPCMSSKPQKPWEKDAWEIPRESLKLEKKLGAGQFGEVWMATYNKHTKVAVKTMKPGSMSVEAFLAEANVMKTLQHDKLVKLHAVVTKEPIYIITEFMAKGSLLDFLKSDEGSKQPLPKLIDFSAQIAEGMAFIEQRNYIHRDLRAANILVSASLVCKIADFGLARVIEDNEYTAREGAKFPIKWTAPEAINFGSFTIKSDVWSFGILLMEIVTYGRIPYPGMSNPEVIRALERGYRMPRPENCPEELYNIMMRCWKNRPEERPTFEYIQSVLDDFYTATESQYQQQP

SMILES	Kd [1]	Kd [2]	Kd [3]	Kd [4]	Kd [5]	Kd [6]
C[C@@H](Oc1cc(C(=O)Nc2ccc(C(=O)N3CCN(C)CC3)cc2)nnc1N)c1c(Cl)ccc(F)c1Cl	> 30 µM (inactive)	> 30 µM (inactive)	> 30 µM (inactive)	> 30 µM (inactive)	> 30 µM (inactive)	> 30 µM (inactive)
C[C@H]1CNCCCN1S(=O)(=O)c1cccc2cncc(F)c12	> 30 µM (inactive)	> 30 µM (inactive)	> 30 µM (inactive)	> 30 µM (inactive)	> 30 µM (inactive)	> 30 µM (inactive)
CC(=O)c1cnc2ccc(-c3cc(Cl)c(O)c(Cl)c3)nc2c1N[C@H]1CC[C@H](CN(C)C)CC1	> 30 µM (inactive)	> 30 µM (inactive)		0.251 µM (active)	0.116 µM (active)	2.28 µM (active)
CCNC(=O)C#Cc1ccc2c(c1)NC(=O)/C2=C(\Nc1ccc(CN(C)C)cc1)c1ccccc1	> 30 µM (inactive)	> 30 µM (inactive)	> 30 µM (inactive)	0.799 µM (active)	0.9 µM (active)	
C=CC(=O)N1CCC[C@H](n2c(=O)n(-c3ccc(Oc4ccccc4)cc3)c3c(N)ncnc32)C1	> 30 µM (inactive)	> 30 µM (inactive)	> 30 µM (inactive)	> 30 µM (inactive)	0.006 µM	> 30 µM (inactive)
Cc1nc2cc(-c3nn(C(C)C)c4ncnc(N)c34)ccc2o1	> 30 µM (inactive)	> 30 µM (inactive)	> 30 µM (inactive)	> 30 µM (inactive)	> 30 µM (inactive)	0.139 µM (active)
COCc1c(-c2ccc(NC(=O)Nc3cc(C(F)(F)F)ccc3F)c(F)c2)c2c(N)ncnn2c1CN1CCOCC1	> 30 µM (inactive)	> 30 µM (inactive)	> 30 µM (inactive)	4.13 µM (active)	> 30 µM (inactive)	3.25 µM (active)
Nc1ncnc2c1c(-c1cccc(OCc3ccccc3)c1)cn2[C@H]1C[C@@H](CN2CCC2)C1 [AEW-541]	> 30 µM (inactive)	> 30 µM (inactive)	> 30 µM (inactive)	> 30 µM (inactive)	0.623 µM (active)	> 30 µM (inactive)
COc1cc(Nc2ncc3c(n2)-c2ccc(Cl)cc2C(c2c(F)cccc2OC)=NC3)ccc1C(=O)O [ALISERTIB]	> 30 µM (inactive)	> 30 µM (inactive)		> 30 µM (inactive)		> 30 µM (inactive)
Cc1nc(NC(=O)N2CCC[C@H]2C(N)=O)sc1-c1ccnc(C(C)(C)C(F)(F)F)c1 [ALPELISIB]	> 30 µM (inactive)	> 30 µM (inactive)	> 30 µM (inactive)	> 30 µM (inactive)	> 30 µM (inactive)	> 30 µM (inactive)
Cc1csc(-c2nnc(Nc3ccc(Oc4ncccc4-c4ccnc(N)n4)cc3)c3ccccc23)c1 [AMG-900]	> 30 µM (inactive)	> 30 µM (inactive)	> 30 µM (inactive)	> 30 µM (inactive)	> 30 µM (inactive)	0.298 µM (active)
O=C(Nc1c[nH]nc1-c1nc2cc(CN3CCOCC3)ccc2[nH]1)NC1CC1 [AT-9283]	> 30 µM (inactive)	> 30 µM (inactive)	0.157 µM (active)		0.664 µM (active)	> 30 µM (inactive)
C=CC(=O)Nc1cc2c(Nc3ccc(F)c(Cl)c3)ncnc2cc1C#CC(C)(C)N1CCN(C)CC1 [AV-412 FREE BASE]	> 30 µM (inactive)	> 30 µM (inactive)	> 30 µM (inactive)	> 30 µM (inactive)	> 30 µM (inactive)	> 30 µM (inactive)
CNC(=O)c1ccccc1Sc1ccc2c(/C=C/c3ccccn3)n[nH]c2c1 [AXITINIB]		> 30 µM (inactive)				
COc1cc([C@@H]2c3cc4c(cc3[C@H](O)[C@H]3COC(=O)[C@@H]23)OCO4)cc(OC)c1OC [AXL-1717]	> 30 µM (inactive)	> 30 µM (inactive)	> 30 µM (inactive)	> 30 µM (inactive)	> 30 µM (inactive)	> 30 µM (inactive)
NC(=O)Nc1cc(-c2cccc(F)c2)sc1C(=O)N[C@H]1CCCNC1 [AZD-7762]	> 30 µM (inactive)	> 30 µM (inactive)	> 30 µM (inactive)	> 30 µM (inactive)	0.103 µM (active)	> 30 µM (inactive)
Cc1cc(C(=O)NOCCO)c(Nc2ccc(I)cc2F)n(C)c1=O [AZD-8330]	> 30 µM (inactive)	> 30 µM (inactive)	> 30 µM (inactive)	> 30 µM (inactive)	> 30 µM (inactive)	> 30 µM (inactive)
CC(C)(C)c1nc(-c2cccc(NS(=O)(=O)c3c(F)cccc3F)c2F)c(-c2ccnc(N)n2)s1 [DABRAFENIB]	> 30 µM (inactive)	> 30 µM (inactive)	> 30 µM (inactive)		1.65 µM	> 30 µM (inactive)
Cn1cc(C2=C(c3cn(C4CCN(Cc5ccccn5)CC4)c4ccccc34)C(=O)NC2=O)c2ccccc21 [ENZASTAURIN]		> 30 µM (inactive)				
C[C@@H](Oc1cc(-n2cnc3ccc(CN4CCN(C)CC4)cc32)sc1C(N)=O)c1ccccc1C(F)(F)F [GSK-461364]		> 30 µM (inactive)				
CCn1cc(-c2ccnc3[nH]c(-c4cccc(CN(C)C)c4)cc23)c(-c2ccc(NC(=O)N(C)C)cc2)n1 [GSK-1070916]	> 30 µM (inactive)	> 30 µM (inactive)			> 30 µM (inactive)	1.27 µM (active)
Cc1[nH]c(/C=C2\C(=O)Nc3ccccc32)c(C)c1CCC(=O)O [ORANTINIB]	> 30 µM (inactive)	> 30 µM (inactive)				> 30 µM (inactive)
NC(=O)c1c(OCc2c(F)cc(Br)cc2F)nsc1NC(=O)NCCCCN1CCCC1 [OSI-632]	> 30 µM (inactive)	> 30 µM (inactive)			> 30 µM (inactive)	0.669 µM (active)
CC(=O)NCC(=O)N1[C@@H]2CC[C@H]1c1ccc(Nc3ncc(C(F)(F)F)c(NC4CCC4)n3)cc12 [PF-03814735]	> 30 µM (inactive)	> 30 µM (inactive)		2.41 µM (active)	> 30 µM (inactive)	> 30 µM (inactive)
CNC(=O)c1cc(Oc2ccc(NC(=O)Nc3cc(C(C)(C)C)nn3-c3ccc4ncccc4c3)c(F)c2)ccn1 [REBASTINIB]	> 30 µM (inactive)	> 30 µM (inactive)		> 30 µM (inactive)		
O=C(NOCCO)c1cc(CN2OCCCC2=O)c(F)c(F)c1Nc1ccc(I)cc1F [RO-4987655]		> 30 µM (inactive)				
N#CC[C@H](C1CCCC1)n1cc(-c2ncnc3[nH]ccc23)cn1 [RUXOLITINIB]		> 30 µM (inactive)				
CN1CCN(CCOc2cc(OC3CCOCC3)c3c(Nc4c(Cl)ccc5c4OCO5)ncnc3c2)CC1 [SARACATINIB]	> 30 µM (inactive)	> 30 µM (inactive)	> 30 µM (inactive)	> 30 µM (inactive)	0.1 µM (active)	
CCS(=O)(=O)c1cccc(-c2cc(C(=O)NC3CCN(C)CC3)c(C)c3[nH]c4ncc(C)cc4c23)c1 [TAK-901]	> 30 µM (inactive)	> 30 µM (inactive)	> 30 µM (inactive)		0.143 µM (active)	
